Assays:
MCF10A = test: Real-time cell electronic sensing (RT-CES); assay type: cell-based, human; conditions: 2.5, 5, 10 μM; immortalized normal breast epithelial cells
Description: (§1) To monitor the real-time cell growth of cells and cytotoxicity of compounds, the xCELLigence system (Roche Applied Sciences) was used. The cells were seeded onto 96-well E-Plate Mahlavu (1500 cell/well), MCF7, Huh7 (2500 cell/well), MDA-MB-231 (5000 cell/well), and MCF10A (6000 cell/well) in 100 μL of the medium/well. To examine the proliferation of cells, the cellular growth was monitored as cell index (CI) every 30 min for 24 h. When the cells were in a log growth phase, treatment with compounds 11 and 85 in 2.5, 5, and 10 μM concentrations was done, the CI values were recorded every 10 min for 24 h for controlling fast drug response and then every 30 min for the remaining 48 h for long-term dose response. After 72 h of incubation, the cellular growth ratios were calculated by CIDrug/CIDMSO.

[1] = test system: Mahlavu, Huh7, MDA-MB-231, and MCF-7; test: Real-time cell electronic sensing (RT-CES); assay type: cell-based, human; conditions: 2.5, 5, 10 μM; compared to control (DMSO)
Description: as §1

[2] = test system: Mahlavu, Huh7, MCF7, and MDA-MB-231 cells; test: Hoechst nuclear staining for cell death; assay type: cell-based, human; conditions: IC100 concentrations, 48 h
Description: Mahlavu, Huh7, MCF7, and MDA-MB-231 cells were cultured onto cover slides in six-well plates for 24 h according to their cell growth rate. […] The 1× PBS was used to wash the cells three times, and the cells were fixed with 100% ice-cold methanol. Then, the cells were stained with 1 μg/mL Hoechst (#33258, Sigma). The cells were analyzed under the fluorescence microscope (Nikon Eclipse 50i).

Huh7 = test: SRB cytotoxicity assay; assay type: cell-based, human; conditions: 72 h treatment
Outline: (§2)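 Cells seeded 24 h before 72 h compound exposure, 40 to 2.5 μM (or 2.5 to 0.15 μM for compounds below 2.5 μM). TCA-fixed, stained with sulforhodamine B, absorbance at 515 nm. IC50 relative to DMSO control; fits with R^2 above 0.9 accepted.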

Mahlavu = test: SRB cytotoxicity assay; assay type: cell-based, human; conditions: Homo sapiens, Mahlavu, 72 h, 72 h treatment
Outline: as §2

MCF7 = test: SRB cytotoxicity assay; assay type: cell-based, human; conditions: 72 h treatment
Outline: as §2

KM12 = test: NCI-60 single-dose screen; assay type: cell-based; conditions: Homo sapiens, KM12, Colon Cancer, read-out: % Growth Inhibition (GI%)
Description: (§3) Moreover, in vitro single-dose anticancer screening of 11 and 85 at 10 μM was performed utilizing the stable panel of 60 cell lines comprising 9 different cancer types at the National Cancer Institute (NCI) under the Developmental Therapeutics Program (Table S1).[31]

SF-295 = test: NCI-60 single-dose screen; assay type: cell-based; conditions: Homo sapiens, SF-295, CNS Cancer, read-out: % Growth Inhibition (GI%)
Description: as §3

RPMI-8226 = test: NCI-60 single-dose screen; assay type: cell-based; conditions: Homo sapiens, RPMI-8226, Leukemia, read-out: % Growth Inhibition (GI%)
Description: as §3

SK-MEL-5 = test: NCI-60 single-dose screen; assay type: cell-based; conditions: Homo sapiens, SK-MEL-5, Melanoma, read-out: % Growth Inhibition (GI%)
Description: as §3

M14 = test: NCI-60 single-dose screen; assay type: cell-based; conditions: Homo sapiens, M14, Melanoma, read-out: % Growth Inhibition (GI%)
Description: as §3

OVCAR-4 = test: NCI-60 single-dose screen; assay type: cell-based; conditions: Homo sapiens, OVCAR-4, Ovarian Cancer, read-out: % Growth Inhibition (GI%)
Description: as §3

| Structure (SMILES) | Real-time cell growth response, MCF10A (MCF10A) | Real-time cell growth response, cancer cell lines [1] | Nuclear morphology by Hoechst staining [2] | IC50 (Huh7; Homo sapiens, Huh-7, 72 h) [nM] | IC50 (Mahlavu) [µM] | IC50 (MCF7; Homo sapiens, MCF7, 72 h) [nM] | inhibition at 10 µM (KM12) [%] | inhibition at 10 µM (SF-295) [%] | inhibition at 10 µM (RPMI-8226) [%] | inhibition at 10 µM (SK-MEL-5) [%] | inhibition at 10 µM (M14) [%] | inhibition at 10 µM (OVCAR-4) [%] | IC50 (Huh7) [nM] | IC50 (MCF7) [nM] |
| --- | --- | --- | --- | --- | --- | --- | --- | --- | --- | --- | --- | --- | --- | --- |
| Cc1ccccc1COc1ccc(-c2noc(C)c2-c2ccc(Cl)cc2)cc1 [compound 11, 4-(4-Chlorophenyl)-5-methyl-3-(4-((2-methylbenzyl)oxy)phenyl)isoxazole] | no difference in the growth | inhibition in the growth | Apoptotic bodies were detectable | 1300 | 3.2 | 3800 | 45.7 | 50.6 | 19 | 26.6 | 67.8 | 17.3 |  |  |
| Cc1ccccc1COc1ccc(-c2ccnn2-c2ccc(Cl)cc2)cc1 [compound 85, 1-(4-Chlorophenyl)-5-(4-((2-methylbenzyl)oxy)phenyl)-1H-pyrazole] | no difference in the growth | inhibition in the growth | Apoptotic bodies were detectable | < 1000 | 3.7 | < 1000 | 49.3 | 46.9 | 22.6 | 33.4 | 61 | 14.3 | 700 | 900 |

Reference: PMC9583322, “Vicinal Diaryl-Substituted Isoxazole and Pyrazole Derivatives with In Vitro Growth Inhibitory and In Vivo Antitumor Activity” (ACS Omega, 2022)
